Tests used:
[1] = biological target: T1, rat B1R (bradykinin receptor 1) (Rattus norvegicus, UniProt P97583); test: FLIPR Ca2+ assay (Fluo-4) on CHO K1 cells stably transfected with the B1R gene of the rat (rB1R cells): % inhibition at 10 μM / IC50, agonist Des-Arg9-bradykinin; type: cell-based; conditions: CHO-K1, rat B1R
T1 construct: expressed in transfected cells; host or cells: CHO K1 cells
T1 sequence (P97583 1-337): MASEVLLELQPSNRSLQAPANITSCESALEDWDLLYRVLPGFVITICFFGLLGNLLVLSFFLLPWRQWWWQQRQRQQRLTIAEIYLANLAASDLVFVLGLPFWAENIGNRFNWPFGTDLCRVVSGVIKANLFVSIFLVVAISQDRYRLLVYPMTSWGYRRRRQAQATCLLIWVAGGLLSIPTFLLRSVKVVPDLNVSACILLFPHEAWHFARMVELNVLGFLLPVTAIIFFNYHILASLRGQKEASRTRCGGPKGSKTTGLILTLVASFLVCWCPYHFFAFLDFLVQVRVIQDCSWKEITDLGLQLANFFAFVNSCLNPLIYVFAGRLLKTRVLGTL
Summary of the method: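 Peak fluorescence counts read on FLIPR (λex 488, λem 540 nm) after two additions: compound first, then agonist at EC80 after 10–20 min. Human line challenged with Lys-Des-Arg9-bradykinin, rat line with Des-Arg9-bradykinin. Suppression of Ca2+ inflow expressed as % of maximum inhibition.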

[2] = biological target: T2, human B1R (bradykinin receptor 1) (Homo sapiens, UniProt P46663); test: FLIPR Ca2+ assay (Fluo-4) on CHO K1 cells stably transfected with the human B1R gene (hB1R cells): % inhibition at 10 μM / IC50, agonist Lys-Des-Arg9-bradykinin; type: cell-based; conditions: CHO-K1, human B1R
T2 construct: expressed in transfected cells; host or cells: CHO K1 cells
T2 sequence (P46663 1-353): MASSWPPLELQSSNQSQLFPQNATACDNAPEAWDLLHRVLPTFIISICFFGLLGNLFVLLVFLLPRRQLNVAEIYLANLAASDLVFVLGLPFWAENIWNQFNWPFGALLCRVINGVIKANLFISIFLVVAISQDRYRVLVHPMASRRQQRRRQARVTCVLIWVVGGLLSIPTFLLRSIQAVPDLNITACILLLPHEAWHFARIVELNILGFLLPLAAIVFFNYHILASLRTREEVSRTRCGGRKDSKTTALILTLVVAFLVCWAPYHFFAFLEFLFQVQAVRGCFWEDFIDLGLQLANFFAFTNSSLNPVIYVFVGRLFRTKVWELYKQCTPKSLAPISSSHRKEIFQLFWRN
Protocol: The agonistic or antagonistic action of substances can be quantified on the bradykinin receptor 1 (B1R) of the human and rat species with ectopically expressing cell lines (CHO K1 cells) and with the aid of a Ca^2+-sensitive dyestuff (Fluo-4) in a fluorescent imaging plate reader (FLIPR). The figure in % activation is based on the Ca^2+ signal after addition of Lys-Des-Arg^9-bradykinin (0.5 nM) or Des-Arg^9-bradykinin (100 nM). Antagonists lead to a suppression of the Ca^2+ inflow after addition of the agonist. % inhibition compared with the maximum achievable inhibition is stated.
The agonistic or antagonistic action of substances can be determined on the bradykinin receptor 1 (B1R) of the human and rat species with the following assay. In accordance with this assay, the Ca^2+ inflow through the channel is quantified with the aid of a Ca^2+-sensitive dyestuff (type Fluo-4, Molecular Probes Europe BV, Leiden, Holland) in a fluorescent imaging plate reader (FLIPR, Molecular Devices, Sunnyvale, USA).
Chinese hamster ovary cells (CHO K1 cells) transfected stably with the human B1R gene (hB1R cells) or the B1R gene of the rat (rB1R cells) are used. For functional studies, these cells are plated out on black 96-well plates with a clear base (BD Biosciences, Heidelberg, Germany or Greiner, Frickenhausen, Germany) in a density of 20,000-35,000 cells/well. The cells are left overnight at 37° C. and 5% CO2 in culture medium (hB1R cells: Nutrient Mixture Ham's F12, Gibco Invitrogen GmbH, Karlsruhe, Germany or DMEM, Sigma-Aldrich, Taufkirchen, Germany; rB1R cells: D-MEM/F12, Gibco Invitrogen GmbH, Karlsruhe, Germany) with 10 vol. % FBS (foetal bovine serum, Gibco Invitrogen GmbH, Karlsruhe, Germany or PAN Biotech GmbH, Aidenbach, Germany). On the following day, the cells are loaded for 60 min at 37° C. with 2.13 μM Fluo-4 (Molecular Probes Europe BV, Leiden Holland) in HBSS buffer (Hank's buffered saline solution, Gibco Invitrogen GmbH, Karlsruhe, Germany) with 2.5 mM probenecid (Sigma-Aldrich, Taufkirchen, Germany) and 10 mM HEPES (Sigma-Aldrich, Taufkirchen, Germany). The plates are then washed 2× with HBSS buffer, and HBSS buffer which additionally contains 0.1% BSA (bovine serum albumin; Sigma-Aldrich, Taufkirchen, Germany), 5.6 mM glucose and 0.05% gelatine (Merck KGaA, Darmstadt, Germany) is added. After a further incubation of 20 minutes at room temperature, the plates are inserted into the FLIPR for the Ca^2+ measurement. Alternatively, the plates are washed with buffer A (15 mM HEPES, 80 mM NaCl, 5 mM KCl, 1.2 mM CaCl2, 0.7 mM MgSO4, 2 g/l glucose, 2.5 mM probenecid), buffer A is added and the plates are loaded with 2.5 μM Fluo-4 and 0.025% Pluronic F127 (Sigma-Aldrich, Taufkirchen, Germany). Thereafter, the cells are washed 2× with buffer A and incubated for 30 minutes at room temperature with buffer A, which additionally contains 0.05% BSA and 0.05% gelatine, and thereafter inserted into the FLIPR for the Ca^2+ measurement. The Ca^2+-dependent fluorescence is measured here before and after addition of substances (λex=488 nm, λem=540 nm). Quantification is by measurement of the highest fluorescence intensity (FC, fluorescence counts) over time.
The FLIPR protocol consists of 2 additions of substance. Test substances (10 μM) are first pipetted on to the cells and the Ca^2+ inflow is compared with the control (hB1R: Lys-Des-Arg^9-bradykinin>=50 nM; rB1R: Des-Arg^9-bradykinin 10 μM). This gives the result in % activation based on the Ca^2+ signal after addition of Lys-Des-Arg^9-bradykinin (>=50 nM) or Des-Arg^9-bradykinin (10 μM). After incubation for 10-20 minutes, Lys-Des-Arg^9-bradykinin (hB1R) or Des-Arg^9-bradykinin (rB1R) in the concentration of the EC80 is applied and the inflow of Ca^2+ is likewise determined. Antagonists lead to a suppression of the Ca^2+ inflow. % inhibition compared with the maximum achievable inhibition is calculated.
For determination of the IC50 value, the substances are added in various concentrations. […]

| Structure (SMILES) | inhibition at 10 µM [1] [%] | inhibition at 10 µM [2] [%] |
| --- | --- | --- |
| Cc1cccc(C)c1C(=O)N[C@@H]1CCc2ccc(C(=O)N3CCC4(CCN(c5ccncc5)CC4)C3)cc21 [Example H-104, 2,6-Dimethyl-N-[(1R)-6-(8-pyridin-4-yl-3,8-diazaspiro[4.5]decane-3-carbonyl)-2,3-dihydro-1H-inden-1-yl]-benzamide] | 109 | 101 |
| CC1(C)CC(NC(=O)c2cccc(C(F)(F)F)c2Cl)c2cc(C(=O)N3CCC4(CC3)CCN(c3ccncc3)CC4)ccc21 (stereo not drawn) [IND_CC-254, 2-Chloro-N-[3,3-dimethyl-6-(3-pyridin-4-yl-3,9-diazaspiro[5.5]undecane-9-carbonyl)-1,2-dihydro-inden-1-yl]-3-(trifluoromethyl)-benzamide] | 105 | 97 |
| O=C(c1ccc2c(c1)[C@H](N1Cc3cccc(Cl)c3C1=O)CCC2)N1CCC2(CCN(c3ccncc3)CC2)C1 [Example H-13, 7-chloro-2-[(1R)-7-(8-pyridin-4-yl-3,8-diazaspiro[4.5]decane-3-carbonyl)-1,2,3,4-tetrahydro-naphthalen-1-yl]-2,3-dihydro-isoindol-1-one] | 101 | 100 |
| CC1(C)CC(NC(=O)c2cc(C(F)(F)F)ccc2Cl)c2cc(C(=O)N3CCC4(CC3)CCN(c3ccncc3)CC4)ccc21 (stereo not drawn) [IND_CC-250, 2-Chloro-N-[3,3-dimethyl-6-(3-pyridin-4-yl-3,9-diazaspiro[5.5]undecane-9-carbonyl)-1,2-dihydro-inden-1-yl]-5-(trifluoromethyl)-benzamide] | 100 | 94 |
| O=C(NCc1ccccc1Cl)NC1CCc2ccc(C(=O)N3CCC4(CCN(c5ccncc5)CC4)C3)cc21 (stereo not drawn) [Ind_CC-086, 1-[(2-chlorophenyl)-methyl]-3-[6-(8-pyridin-4-yl-2,8-diazaspiro[4.5]decane-2-carbonyl)-2,3-dihydro-1H-inden-1-yl]-urea] | 99 | 100 |
| CC1(C)CC(NS(=O)(=O)Cc2ccccc2C(F)(F)F)c2cc(C(=O)N3CCC4(CC3)CCN(c3ccncc3)CC4)ccc21 (stereo not drawn) [IND_CC-256, N-[3,3-Dimethyl-6-(3-pyridin-4-yl-3,9-diazaspiro[5.5]undecane-9-carbonyl)-1,2-dihydro-inden-1-yl]-1-[2-(trifluoromethyl)-phenyl]-methanesulfonic acid amide] | 100 | 99 |
| CN(C(=O)c1ccc(Cl)s1)C1CCc2ccc(C(=O)N3CCC4(CC3)CCN(c3ccncc3)CC4)cc21 (stereo not drawn) [Ind_CC-017, 5-chloro-N-methyl-N-[6-(9-pyridin-4-yl-3,9-diazaspiro[5.5]undecane-3-carbonyl)-2,3-dihydro-1H-inden-1-yl]-thiophene-2-carboxylic acid amide] | 102 | 99 |
| O=C(NC1CCc2ccc(C(=O)N3CCC4(CCN(c5ncc(C(F)(F)F)cn5)CC4)C3)cc21)c1ccccc1Cl (stereo not drawn) [Example H-130, 2-Chloro-N-[6-[8-[5-(trifluoromethyl)-pyrimidin-2-yl]-3,8-diazaspiro[4.5]decane-3-carobnyl]-2,3-dihydro-1H-inden-1-yl]-benzamide] | 99 | 94 |
| O=C(N[C@@H]1CCc2ccc(C(=O)N3CCC4(CCC(OCCn5ccnc5)CC4)CC3)cc21)c1ccccc1Cl [Example H-120, 2-Chloro-N-[6-[9-[2-(1H-imidazol-1-yl)-ethoxy]-3-azaspiro[5.5]undecane-3-carbonyl]-2,3-dihydro-1H-inden-1-yl]-benzamide] | 104 | 65 |
| O=C(c1ccc2c(c1)CC[C@@H]2N1Cc2cccc(Cl)c2C1=O)N1CCC2(CC1)CCN(c1ccncc1)CC2 [Example H-158, 7-Chloro-2-[(1S)-5-(9-pyridin-4-yl-3,9-diazaspiro[5.5]undecane-3-carbonyl)-2,3-dihydro-1H-inden-1-yl]-2,3-dihydro-isoindol-1-one] | 100 | 92 |
| CN(C1CCc2ccc(C(=O)N3CCC4(CC3)CCN(c3ccncc3)CC4)cc21)S(=O)(=O)Cc1ccccc1C(F)(F)F (stereo not drawn) [IND_CC-226, N-Methyl-N-[6-(9-pyridin-4-yl-3,9-diazaspiro[5.5]undecane-3-carbonyl)-2,3-dihydro-1H-inden-1-yl]-1-[2-(trifluoromethyl)-phenyl]-methanesulfonic acid amide] | 101 | 98 |
| Cc1cccc(C)c1C(=O)NC1CCc2ccc(C(=O)N3CCC4(CC3)CCN(c3ccc(C(F)(F)F)cc3)CC4)cc21 (stereo not drawn) [IND_CC-307, 2,6-Dimethyl-N-[6-[9-[4-(trifluoromethyl)-phenyl]-3,9-diazaspiro[5.5]undecane-3-carbonyl]-2,3-dihydro-1H-inden-1-yl]-benzamide] | 103 | 14 |
| O=C(N[C@@H]1CCc2ccc(C(=O)N3CCC4(CCC(C(=O)N[C@@H]5CN6CCC5CC6)CC4)CC3)cc21)c1ccccc1Cl [Example H-62, N-[(5S)-1-Azabicyclo[2.2.2]octan-5-yl]-3-[(3R)-3-[(2-chloro-benzoyl)amino]-2,3-dihydro-1H-indene-5-carbonyl]-3-azaspiro[5.5]undecane-9-carboxylic acid amide] | 102 | 30 |
| O=C(N[C@@H]1CCCc2ccc(C(=O)N3CCCC4(CCCN(c5ccncc5)C4)C3)cc21)c1ccccc1Cl (stereo partly drawn) [Example H-69] | 102 | 98 |
| Cc1cccc(C)c1C(=O)NC1CCc2ccc(C(=O)N3CCC4(CCN(c5ccncc5)CC4)C3)cc21 (stereo not drawn) [IND_CC-310, 2,6-Dimethyl-N-[6-(8-pyridin-4-yl-2,8-diazaspiro[4.5]decane-2-carbonyl)-2,3-dihydro-1H-inden-1-yl]-benzamide] | 104 | 100 |
